Target: T1, guinea pig cortex NK3 receptor (Cavia porcellus, UniProt P30098)
T1 construct: guinea pig cortex NK3 receptor; from tissue; host or cells: guinea pig (brain) cortex, prepared by the cited method of Guard et al., Br. J. Pharmacol. (1990), 99, 767
T1 sequence (P30098 1-440): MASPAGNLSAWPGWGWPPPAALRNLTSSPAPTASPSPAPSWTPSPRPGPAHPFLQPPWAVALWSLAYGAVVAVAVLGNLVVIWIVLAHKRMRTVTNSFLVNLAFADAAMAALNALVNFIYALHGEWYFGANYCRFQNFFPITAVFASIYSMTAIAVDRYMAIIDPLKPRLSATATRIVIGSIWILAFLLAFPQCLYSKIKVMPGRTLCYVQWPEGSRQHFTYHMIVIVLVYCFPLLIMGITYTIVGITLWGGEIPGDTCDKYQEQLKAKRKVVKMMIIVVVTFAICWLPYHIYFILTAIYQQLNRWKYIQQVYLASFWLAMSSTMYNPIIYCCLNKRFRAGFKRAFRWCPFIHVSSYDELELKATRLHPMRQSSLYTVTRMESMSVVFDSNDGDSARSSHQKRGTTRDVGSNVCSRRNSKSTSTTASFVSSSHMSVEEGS
Experiment: in vitro affinity for the guinea pig cortex NK3 receptor (displacement of [^3 H] senktide)
Format: binding
Settings: displacement of [^3 H] senktide at guinea pig cortex NK3 receptor
Protocol: The affinity of the compounds of formula (I) and their salts for the NK3 receptor can be tested in vitro by testing their ability to displace [^3 H] senktide at the guinea pig cortex NK3 receptor. The receptors are prepared by the method described by S. Guard, et al, in Br.J.Pharmacol. (1990), 99, 767.
The data below illustrates the in vitro affinity of substances of the invention for the guinea pig cortex NK3 receptor, which assays were carried out according to the method mentioned earlier on page 15.

Row | IC50 [nM] | Compound
1 | 11.2 | CS(=O)(=O)N(c1ccccc1)C1CN(CCC[C@]2(c3ccc(Cl)c(Cl)c3)CCCN(C(=O)c3ccccc3)C2)C1 [Example 13]
2 | 1.58 | CS(=O)(=O)N1CCN(C2CN(CCC[C@]3(c4ccc(Cl)c(Cl)c4)CCCN(C(=O)c4ccccc4)C3)C2)CC1 [Example 3, (+)-3(R)-1-Benzoyl-3-(3,4-dichlorophenyl)-3-(3-[3-(4-methanesulphonylpiperazin-1-yl)azetidin-1-yl]propyl)piperidine]
3 | 3.98 | CS(=O)(=O)N1CCN(C2CN(CCC[C@]3(c4ccc(Cl)c(Cl)c4)CCCN(C(=O)c4ccc(F)c(F)c4)C3)C2)CC1 [Example 17, (+)-3(R)-3-(3,4-Dichlorophenyl)-1-(3,4-difluorobenzoyl)-3-(3-[3-(4-methanesulphonylpiperazin-1-yl)azetidin-1-yl]propyl)piperidine]

Source: patent US6262046A, “Azetidinylpropylpiperidine derivatives, intermediates and use as tachykinin antagonists” (Pfizer Inc., priority 1997, dated 2001)
